pIC50: −log10 of the molar value. Where a name gives a salt, the structure may show the parent alone.
Key:
[1] = system: Staphylococcus aureus MW2 (mecA+); experiment: IC50 (growth, competition assay); settings: cefoxitin: subinhibitory
Method in brief: (§1)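 Signals from DsRed (540/590) and GFP (485/520) were scaled on every plate between single-strain control medians, with No Treatment then set to 0.5. The cells were a 1:1 mix of pre-induced fluorescent S. aureus MW2 strains with and without the resistance gene, grown unshaken for 20 h at 37 °C and 90% humidity in LB in 1536-well plates under a subinhibitory drug dose set each day. Each strain's IC50 was defined as the dose halving the No Treatment signal, or the maximal signal.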

[2] = system: Staphylococcus aureus MW2 delta-mecA (mecA-); experiment: IC50 (growth, competition assay); settings: cefoxitin: subinhibitory
Method in brief: as §1

| SMILES | pIC50 ([1]; fluorescent label: DsRed) | pIC50 ([1]; fluorescent label: GFP) | pIC50 ([2]; fluorescent label: DsRed) | pIC50 ([2]; fluorescent label: GFP) |
| --- | --- | --- | --- | --- |
| CCOc1ccc2ccccc2c1C(=O)N[C@@H]1C(=O)N2[C@@H]1SC(C)(C)[C@@H]2C(=O)O [NALLPEN] | > 5.01 | > 5.01 | > 5.01 | > 5.01 |
| COC(=O)C1=C(C)NC(C)=C(C(=O)OCCCN2CCC(c3ccccc3)(c3ccccc3)CC2)[C@H]1c1cccc([N+](=O)[O-])c1 [S-(+)-Niguldipine hydrochloride] | > 5.01 | 4.94 | > 5.01 | > 5.01 |
| N#Cc1cc([N+](=O)[O-])c2sc(C(N)=O)[n+]([O-])c2c1 [BTO-1] | 4.71 | 4.72 | > 5.01 | > 5.01 |
| CC/C(=C(\c1ccccc1)c1ccc(OCCN(C)C)cc1)c1ccccc1 [Tamoxifen citrate] | 4.83 | 4.83 | > 5.01 | > 5.01 |
| CC(=O)[C@H]1CC[C@H]2[C@@H]3CC=C4C[C@@H](OC(=O)CCC(=O)O)CC[C@]4(C)[C@H]3CC[C@]12C [FORMULA-405] | 4.74 | 4.46 | 4.74 | 4.75 |
| CC[C@H]1OC(=O)C[C@@H](O)[C@H](C)[C@@H](O[C@@H]2O[C@H](C)[C@@H](O)[C@H](N(C)C)[C@H]2O)[C@@H](CCN2C[C@H](C)C[C@H](C)C2)C[C@@H](C)C(=O)/C=C/C(C)=C/[C@@H]1CO[C@@H]1O[C@H](C)[C@@H](O)[C@@H](OC)[C@H]1OC [MICOTIL] | 4.73 | 4.55 | 4.87 | > 5.01 |
| CC[C@H](C)C(=O)O[C@H]1C[C@H](O)C=C2C=C[C@H](C)[C@H](CC[C@@H](O)C[C@@H](O)CC(=O)O)[C@H]21 [Pravastatin sodium] | 4.54 | 4.56 | > 5.01 | > 5.01 |
| C[C@@H](O)[C@H]1C(=O)N2C(C(=O)OCOC(=O)C(C)(C)C)=C(SC3CN(C4=NCCS4)C3)[C@H](C)[C@H]12 [Tebipenem pivoxil (L-084)] | 5.75 | 5.75 | > 6.30 | > 6.30 |
| CCOC(=O)C1=C(C)NC(C)=C(C(=O)OC)C1c1cccc(Cl)c1Cl (configuration not stated) [Felodipine] | 4.56 | 4.49 | > 5.01 | > 5.01 |
| O=C(Nc1ccc([N+](=O)[O-])cc1Cl)c1cc(Cl)ccc1O [NICLOSIDE] | > 5.01 | > 5.01 | > 5.01 | > 5.01 |
| O=C(O)c1ccc(-n2nc(-c3ccccc3O)nc2-c2ccccc2O)cc1 [Deferasirox (Exjade)] | 4.04 | 4.24 | 4.65 | 4.61 |
| COC(=O)[C@@]1(C)CCC[C@]2(C)c3ccc(O)c(C(C)C)c3CCC12 (some centres not stated) [TOTAROL-19-CARBOXYLIC ACID, METHYL ESTER] | 4.56 | 4.20 | 4.18 | 4.81 |
| O=c1[nH]cc(F)c(=O)[nH]1 [CARAC] | > 5.01 | > 5.01 | > 5.01 | > 5.01 |
| COC(=O)/C(C)=C\C[C@@]12OC(C)(C)[C@@H]3C[C@@H](C=C4C(=O)c5c(O)c6c(c(CC=C(C)C)c5O[C@]431)O[C@](C)(CCC=C(C)C)C=C6)C2=O [METHYL GAMBOGATE] | 4.25 | 4.18 | 4.89 | 4.64 |
| N[C@@H](Cc1cc(I)c(Oc2ccc(O)c(I)c2)c(I)c1)C(=O)O [CYTOMEL] | 4.22 | 4.31 | 4.85 | > 5.01 |
| CCOC(=O)c1ccc(N2NC(=O)C(=Cc3ccc([N+](=O)[O-])o3)C2=O)cc1 [PYR-41] | 4.23 | 4.10 | 4.62 | 4.72 |
| O=C1c2ccccc2-c2nc3nonc3nc21 [SMER 3] | 4.18 | < 3.82 | 4.69 | > 5.01 |
| COc1ccc2c(c1)CCC1C2CCC2(C)C(NCCCCCCN3C(=O)C=CC3=O)CCC12 (configuration not stated) | < 3.82 | < 3.82 | 4.33 | 4.35 |
| CCCCCCCCCCCCCCCCC(C(=O)O)C(O)(CC(=O)O)C(=O)O (configuration not stated) [AGARIC ACID] | 4.89 | 4.69 | > 5.01 | > 5.01 |
| Cc1nc2ccccc2n1Cc1ccc(Cl)cc1 [CHLORMIDAZOLE] | > 5.01 | 4.99 | > 5.01 | > 5.01 |
| CO[C@@]1(NC(=O)C(C(=O)O)c2ccc(O)cc2)C(=O)N2C(C(=O)O)=C(CSc3nnnn3C)CO[C@@H]21 (some centres not stated) [MOXAM] | 4.58 | 4.73 | > 5.01 | > 5.01 |
| CC1(C)C(=O)N(CCN2CCC(C(=O)c3ccc(F)cc3)CC2)c2ccccc21 | 4.41 | 4.01 | 4.27 | 4.79 |
| Cc1c(O)c(O)cc2c1CC=C1[C@@]2(C)CC[C@@]2(C)[C@@H]3C[C@](C)(C(=O)O)CC[C@]3(C)CC[C@]12C [DIHYDROCELASTROL] | > 5.01 | > 5.01 | > 5.01 | > 5.01 |
| COC(=O)c1c(OC)cc2c(c1C)Oc1c(Cl)c(O)c(Cl)c(C)c1C(=O)O2 [GANGALEOIDIN] | > 5.01 | 4.20 | 4.42 | > 5.01 |
| O=C(Nc1ccccc1)Nc1ccc(-c2ccc(C(=O)[C@@H]3CCC[C@H]3C(=O)O)cc2)cc1 | 4.64 | 4.38 | > 5.01 | > 5.01 |
| CC[C@@H](C(=O)O)[C@@H]1O[C@@H]([C@@H](C)[C@H](O)[C@H](C)C(=O)[C@H](CC)[C@H]2O[C@]3(C=C[C@@H](O)[C@]4(CC[C@@](C)([C@H]5CC[C@](O)(CC)[C@H](C)O5)O4)O3)[C@H](C)C[C@@H]2C)[C@@H](C)C[C@@H]1C [NARASIN] | > 5.01 | > 5.01 | > 5.01 | > 5.01 |
| CCCCCCCCCCCCCCCCOP(=O)([O-])OCC[N+](C)(C)C [Miltefosine (Hexadecylphosphocholine)] | < 3.82 | < 3.82 | 4.44 | 4.25 |
| CCN1CCN(c2cc3c(cc2F)c(=O)c(C(=O)O)cn3C2CC2)CC1 [Enrofloxacin] | > 5.01 | > 5.01 | > 5.01 | > 5.01 |
